Measurements published in article PMC6035239, “Glycan recognition in globally dominant human rotaviruses” (Nature Communications, 2018).

Target: T1, P[6] RV3 VP8* (Human rotavirus A, UniProt D7F7M7)
T1 construct: VP8* domain, N-terminal fragment of spike protein VP4 (polyprotein-like precursor cleaved by trypsin); N-terminal GST tag removed with thrombin; E. coli BL21(DE3)
Test: 2D 1H-15N HSQC NMR titration, global fit of […] peaks
Assay type: binding
Settings: 70 μM 15N-labeled protein, 0.5-20 mM ligand; 10 mM sodium phosphate, 50 mM NaCl, 10% D2O, pH 7; crystal structure and STD NMR also done

CC(=O)N[C@H]1[C@H](O[C@H]2[C@@H](O)[C@@H](CO)O[C@@H](O[C@H]3[C@H](O)[C@@H](O)C(O)O[C@@H]3CO)[C@@H]2O)O[C@H](CO)[C@@H](O)[C@@H]1O[C@@H]1O[C@H](CO)[C@H](O)[C@H](O)[C@H]1O[C@@H]1O[C@@H](C)[C@@H](O)[C@@H](O)[C@@H]1O (stereo partly shown) [LNFP1] was tested, and the Kd was 7.1 ± 0.2 mM.
